Tests used:
xanthine oxidase = xanthine oxidase (Homo sapiens, UniProt P47989); assay: Xanthine oxidase inhibitory activity; type: biochemical
Description: 0.2 ml of the substrate solution in which 2 mM xanthine was dissolved was added to 0.1 ml of a sample solution and 0.6 ml of 0.1 M potassium phosphate buffer at pH 7.5, and 0.1 ml of 0.2 unit/ml xanthine oxidase was added thereto, followed by reaction at 37° C. for 5 minutes. Then, 1 ml of 1N HCl was added to terminate the reaction, and then the absorbance of the uric acid produced in the reaction solution was measured at 292 nm. The inhibitory activity of xanthine oxidase was shown by the absorbance reduction rate of the addition group and the non-addition group of the sample solution.
Xanthine oxidase acts as a rate-limiting enzyme in the terminal oxidation of all purines and is an enzyme that acts as a source of oxidizing agents such as superoxide radicals and hydrogen peroxide. The superoxide anion inhibition by xanthine/xanthine oxidase enzymes is shown by superoxide anion scavenging activity and xanthine oxidase inhibition and has biologically important meaning through inhibition of gout and formation of free radicals. The superoxide radical scavenging effects of 10, 20, 40, 80, 160, 320, and 640 μg mL-1 of each fraction extract of the Fomes fomentarius were compared using butylated hydroxy anisole (BHA) as a positive control group.
The superoxide radical scavenging effects of 10, 20, 40, 80, 160, 320, and 640 μg mL-1 of the Acer tegmentosum maxim extract were compared using butylated hydroxy anisole (BHA) as a positive control group.
The superoxide radical scavenging effects of 10, 20, 40, 80, 160, 320, and 640 μg mL-1 of the berchemia berchemiaefolia extract were compared using butylated hydroxy anisole (BHA) as a positive control group.
The superoxide radical scavenging effects of 10, 20, 40, 80, 160, 320, and 640 μg mL-1 of the Lithospermum erythrorhizon extract were compared using butylated hydroxy anisole (BHA) as a positive control group.

[1] = DPPH radical scavenging activity
Description: The present experiment used the property that the hydrazyl of diphenylpicrylhydrazyl (DPPH) used in the present experiment has a property of easily accepting a hydrogen atom since the nitrogen atom is unstable, so as to react with the antioxidant material to accept the hydrogen atom to lose its own orthochromatism.
(§1) First, in order to measure DPPH radical scavenging activity of the Fomes fomentarius fraction, 1.9 ml of 0.2 mM DPPH solution (99.5% ethanol) was added to 0.1 ml of solutions (control: 99.5% ethanol) in which the concentrated dried material of each Fomes fomentarius substance was prepared at 7 concentrations of 10, 20, 40, 80, 160, 320 and 640 μg/ml, respectively. The mixture was shaken with a vortex mixer for 10 seconds and then incubated at 37° C. for 30 minutes. Then, the absorbance was measured at 517 nm using a spectrophotometer.
As a positive control drug, L-ascorbic acid was prepared at […] of 10, 20, 40, 80, 160, 320, and 640 μg/mL (99.5% ethanol).
The present inventors measured DPPH radicals scavenging activity in the same manner as in Example <2-2> above using nonadecanone (2-nonadecanone) and docosenol (cis-13-Docosenol) compounds found in the above and Fomes fomentarius CHCl3 fraction of the present disclosure.
as §1, with “Acer tegmentosum maxim extract,” for “Fomes fomentarius fraction,”, “Acer tegmentosum maxim material” for “Fomes fomentarius substance”
As a positive control, L-ascorbic acid was prepared at […] of 10, 20, 40, 80, 160, 320, and 640 μg/mL (99.5% ethanol).
as §1, with “berchemia berchemiaefolia extract,” for “Fomes fomentarius fraction,”, “berchemia berchemiaefolia material” for “Fomes fomentarius substance”
as §1, with “Lithospermum erythrorhizon extract,” for “Fomes fomentarius fraction,”, “Lithospermum erythrorhizon material” for “Fomes fomentarius substance”

AChE = AChE (Homo sapiens, UniProt P22303); assay: Acetylcholinesterase inhibitory activity; type: biochemical; conditions: read-out: acetylcholinesterase inhibitory activity (%)
AChE, sequence (P22303 32-614): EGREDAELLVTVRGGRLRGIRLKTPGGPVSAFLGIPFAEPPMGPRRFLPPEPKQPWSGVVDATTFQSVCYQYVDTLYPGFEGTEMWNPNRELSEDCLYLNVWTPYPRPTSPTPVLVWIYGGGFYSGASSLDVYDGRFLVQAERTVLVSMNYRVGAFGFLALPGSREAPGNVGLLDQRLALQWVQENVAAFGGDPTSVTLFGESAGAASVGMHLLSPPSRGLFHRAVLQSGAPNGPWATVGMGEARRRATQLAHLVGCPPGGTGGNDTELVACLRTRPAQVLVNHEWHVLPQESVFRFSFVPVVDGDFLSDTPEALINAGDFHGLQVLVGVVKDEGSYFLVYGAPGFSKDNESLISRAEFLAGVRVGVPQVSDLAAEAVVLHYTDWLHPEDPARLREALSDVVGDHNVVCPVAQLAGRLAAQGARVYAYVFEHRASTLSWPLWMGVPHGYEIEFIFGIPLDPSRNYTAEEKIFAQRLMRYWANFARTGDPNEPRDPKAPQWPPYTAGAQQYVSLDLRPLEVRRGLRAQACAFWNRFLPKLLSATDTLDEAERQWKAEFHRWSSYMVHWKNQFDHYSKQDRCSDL
Description: AChE and acetylthocholine iodine (ATC) were dissolved in 100 mM phosphate buffer (pH 8.0) to prepare 0.25 U/mL and 75 mM, respectively. […] 2.8 mL of phosphate buffer (100 mM, pH 8.0), 30 μL of AChE (0.25 U/mL), and 100 μL of DTNB were added to 30 μL of the extract, and were mixed. Then, the mixture was preincubated at 37° C. for 10 minutes. Then, 30 μL of substrate ATC was added thereto and was reacted at 37° C. for 3 minutes, and then the absorbance was measured at 412 nm. As a control group, 30 μL of 100 mM phosphate buffer (pH 8.0) was added instead of the extract, and then was measured.

xanthine oxidase, sequence (P47989 whole entry, species assumed): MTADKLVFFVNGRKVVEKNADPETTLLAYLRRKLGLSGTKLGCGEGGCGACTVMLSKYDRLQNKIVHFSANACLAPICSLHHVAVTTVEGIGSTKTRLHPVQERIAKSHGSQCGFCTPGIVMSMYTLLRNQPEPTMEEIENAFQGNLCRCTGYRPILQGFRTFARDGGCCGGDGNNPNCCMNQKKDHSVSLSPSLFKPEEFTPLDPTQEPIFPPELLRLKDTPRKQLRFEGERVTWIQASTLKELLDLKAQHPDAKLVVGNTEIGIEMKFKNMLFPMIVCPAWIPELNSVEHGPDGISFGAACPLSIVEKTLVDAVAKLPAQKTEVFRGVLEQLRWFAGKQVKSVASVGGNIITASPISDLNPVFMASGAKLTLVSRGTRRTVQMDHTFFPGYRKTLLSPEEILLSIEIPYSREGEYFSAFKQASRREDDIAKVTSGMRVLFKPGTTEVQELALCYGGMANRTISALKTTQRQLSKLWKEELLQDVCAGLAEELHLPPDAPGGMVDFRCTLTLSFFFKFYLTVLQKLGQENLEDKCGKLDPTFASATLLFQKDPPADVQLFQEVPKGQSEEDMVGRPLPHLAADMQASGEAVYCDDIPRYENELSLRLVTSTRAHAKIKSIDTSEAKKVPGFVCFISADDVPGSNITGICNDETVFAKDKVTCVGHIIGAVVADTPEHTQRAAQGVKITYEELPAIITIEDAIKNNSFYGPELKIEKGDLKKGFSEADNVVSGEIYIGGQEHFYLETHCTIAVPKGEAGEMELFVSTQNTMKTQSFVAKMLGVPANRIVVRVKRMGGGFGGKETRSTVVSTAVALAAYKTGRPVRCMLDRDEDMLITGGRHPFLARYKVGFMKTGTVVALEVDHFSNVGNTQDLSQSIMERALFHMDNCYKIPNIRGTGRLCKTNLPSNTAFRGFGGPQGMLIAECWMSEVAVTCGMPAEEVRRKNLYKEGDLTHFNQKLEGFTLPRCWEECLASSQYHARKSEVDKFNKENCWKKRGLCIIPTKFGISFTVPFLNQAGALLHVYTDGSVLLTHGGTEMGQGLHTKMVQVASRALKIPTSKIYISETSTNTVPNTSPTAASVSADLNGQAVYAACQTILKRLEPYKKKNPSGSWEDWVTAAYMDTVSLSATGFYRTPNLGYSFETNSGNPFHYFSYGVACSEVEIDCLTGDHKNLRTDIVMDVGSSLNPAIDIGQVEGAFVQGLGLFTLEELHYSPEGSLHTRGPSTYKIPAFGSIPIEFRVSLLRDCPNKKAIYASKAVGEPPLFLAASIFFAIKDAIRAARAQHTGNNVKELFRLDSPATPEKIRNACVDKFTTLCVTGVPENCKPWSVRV

COc1ccc(O)c(C(C)(C)C)c1 [BHA, butylated hydroxyanisole]
xanthine oxidase inhibitory activity (xanthine oxidase; 10 μg/mL): 24.1±0.1 | xanthine oxidase inhibitory activity (xanthine oxidase; 20 μg/mL): 35.8±0.3 | xanthine oxidase inhibitory activity (xanthine oxidase; 40 μg/mL): 58.1±0.4 | xanthine oxidase inhibitory activity (xanthine oxidase; 80 μg/mL): 68.1±0.5 | xanthine oxidase inhibitory activity (xanthine oxidase; 160 μg/mL): 76.1±0.8 | xanthine oxidase inhibitory activity (xanthine oxidase; 320 μg/mL): 83.5±1.2 | xanthine oxidase inhibitory activity (xanthine oxidase; 640 μg/mL): 85.6±1.3 | xanthine oxidase inhibition of the positive control group (xanthine oxidase; concentration not stated (Example 2-18)): 94.1%

O=C1O[C@H]([C@@H](O)CO)C(O)=C1O [ascorbic acid, L-ascorbic acid, reference compound]
DPPH radical scavenging activity (% antioxidant activity) ([1]; 10 μg/mL): 70.5±4.5% and about 70.5% | DPPH radical scavenging activity (% antioxidant activity) ([1]; 20 μg/mL): 71.8±12.5% and about 71.8% | DPPH radical scavenging activity (% antioxidant activity) ([1]; 40 μg/mL): 74.1±8.2% and about 74.1% | DPPH radical scavenging activity (% antioxidant activity) ([1]; 80 μg/mL): 77.8±7.6% and about 77.8% | DPPH radical scavenging activity (% antioxidant activity) ([1]; 160 μg/mL): 80.6±4.5% and about 80.6% | DPPH radical scavenging activity (% antioxidant activity) ([1]; 320 μg/mL): 83.2±9.6% and about 83.2% | DPPH radical scavenging activity (% antioxidant activity) ([1]; 640 μg/mL): 84.5±7.7% and about 84.5% | inhibition at 10 µg/mL (xanthine oxidase; 10 μg/mL): 24.1 ± 1.8% | inhibition at 20 µg/mL (xanthine oxidase; 20 μg/mL): 35.1 ± 2.5% | inhibition at 40 µg/mL (xanthine oxidase; 40 μg/mL): 58.1 ± 0.9% | inhibition at 80 µg/mL (xanthine oxidase; 80 μg/mL): 68.1 ± 1.1% | inhibition at 160 µg/mL (xanthine oxidase; 160 μg/mL): 76.1 ± 2.5% | inhibition at 320 µg/mL (xanthine oxidase; 320 μg/mL): 83.5 ± 3.5% | inhibition at 640 µg/mL (xanthine oxidase; 640 μg/mL): 85.6 ± 2.8% | inhibition at 10 µg/mL (AChE): 35.8 ± 3.5% | inhibition at 20 µg/mL (AChE): 45.1 ± 4.5% | inhibition at 40 µg/mL (AChE): 51.8 ± 6.5% | inhibition at 80 µg/mL (AChE): 61.1 ± 4.1% | inhibition at 160 µg/mL (AChE): 61.9 ± 3.8% | inhibition at 320 µg/mL (AChE): 76.1 ± 4.6% | inhibition at 640 µg/mL (AChE): 87.9 ± 5.6%

Source: patent US11338004B2, “Composition for preventing or treating cranial nerve disease comprising fomes fomentarius extract, fraction thereof, or compound isolated therefrom as active ingredient” (priority 2015, dated 2022)
